Where two headings read alike, the source gives them in different places. Where a SMILES comes first, the peptide text is derived from it.
What was measured:
[1] = test system: A/Parma/24/09 H1N1 oseltamivir-resistant virus; conditions: reference peptides; ref Scala et al. (2017) [14]; read-out: HI Titer (IC50) A/Parma/24/09 H1N1; cited from earlier work
[2] = test system: A/Parma/24/09 H1N1 oseltamivir-resistant virus
[3] = A/Parma/24/09 oseltamivir-resistant virus, 1 h

## CC(=O)N[C@@H](CO)C(=O)N[C@@H](CCCCN)C(=O)N[C@@H](Cc1c[nH]cn1)C(=O)N[C@@H](CO)C(N)=O [Peptide 1, Ac-SKHS-NH2] (Ac-SKHS-NH2)
[1]
  IC50: 1.5 nM

## CC(=O)N[C@@H](CO)C(=O)N[C@@H](CC(C)C)C(=O)N[C@@H](CC(=O)O)C(=O)N[C@@H](CS)C(N)=O [Peptide 2, Ac-SLDC-NH2] (Ac-SLDC-NH2)
[1]
  IC50: 6 nM

## CC(=O)N[C@@H](CO)C(=O)N[C@@H](C)C(=O)N[C@@H](Cc1c[nH]cn1)C(=O)N[C@@H](CO)C(N)=O [Peptide 4, Ac-SAHS-NH2] (Ac-SAHS-NH2)
[2]; read-out: HI Titer (IC50) A/Parma/24/09 H1N1, 50% inhibition of virus-induced hemagglutination, N.D. = not detectable at maximum tested concentration 12.5 × 10^3 nM
  IC50: 500 pM

## CC(=O)N[C@@H](CO)C(=O)N[C@@H](CCCCN)C(=O)N[C@@H](C)C(=O)N[C@@H](CO)C(N)=O [Peptide 5] (Ac-SKAS-NH2)
[2]; [3]
  IC50: 2.9 pM

## CC(=O)N[C@@H](CO)C(=O)N[C@@H](C)C(=O)N[C@@H](CC(=O)O)C(=O)N[C@@H](CS)C(N)=O [Peptide 8] (Ac-SADC-NH2)
[2]; [3]
  IC50: 0.0022 pM

## CC(=O)N[C@@H](CO)C(=O)N[C@@H](CC(C)C)C(=O)N[C@@H](CC(=O)O)C(=O)N[C@@H](C)C(N)=O [Peptide 10] (Ac-SLDA-NH2)
[2]; [3]
  IC50: 6100 pM

Reference: publication PMC8537277 (Pharmaceuticals, 2021)
